These compounds were tested against T1, SARM1 (ARM-SAM-TIR, full length SARM1) (Homo sapiens, UniProt Q6SZW1) (assay: biochemical). Conditions: SARM1 IC50 (nM), ARM-SAM-TIR lysate 5 μg/mL from NRK1-HEK293T cells, 2 h pre-incubation, 5 uM NAD+, 2 hr room temperature.
T1 sequence (Q6SZW1 with tags, fused parts or gaps): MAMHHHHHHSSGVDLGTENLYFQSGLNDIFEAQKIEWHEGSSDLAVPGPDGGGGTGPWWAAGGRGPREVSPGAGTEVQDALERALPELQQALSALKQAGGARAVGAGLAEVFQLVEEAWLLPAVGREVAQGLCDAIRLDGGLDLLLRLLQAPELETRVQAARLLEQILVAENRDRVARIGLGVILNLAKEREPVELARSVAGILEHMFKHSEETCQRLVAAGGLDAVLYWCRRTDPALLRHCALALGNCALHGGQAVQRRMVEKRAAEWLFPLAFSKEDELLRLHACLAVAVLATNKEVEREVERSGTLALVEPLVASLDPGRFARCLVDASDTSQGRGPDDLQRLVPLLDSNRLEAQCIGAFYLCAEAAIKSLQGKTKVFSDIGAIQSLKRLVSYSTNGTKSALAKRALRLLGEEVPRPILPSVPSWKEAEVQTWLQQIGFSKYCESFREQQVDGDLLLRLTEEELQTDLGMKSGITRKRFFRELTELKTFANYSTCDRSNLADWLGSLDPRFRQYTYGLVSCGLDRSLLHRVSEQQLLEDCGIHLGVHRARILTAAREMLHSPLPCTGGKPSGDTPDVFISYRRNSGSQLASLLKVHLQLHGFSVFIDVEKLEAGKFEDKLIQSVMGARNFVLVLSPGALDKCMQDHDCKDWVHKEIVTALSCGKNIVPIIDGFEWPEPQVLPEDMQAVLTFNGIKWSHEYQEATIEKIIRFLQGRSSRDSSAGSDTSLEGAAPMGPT
Experimental: This assay makes use of full length SARM1, which encompasses the ARM, SAM and TIR domains.
Preparation of ARM-SAM-TIR lysate (STL)
NRK1-HEK293T cells were seeded onto 150 cm^2 plates at 20×10^6 cells per plate. The next day, the cells were transfected with 15 g ARM-SAM-TIR expression plasmid, SEQ ID NO: 1.
The cultures were supplemented with 1 mM NR at time of transfection to minimize toxicity from ARM-SAM-TIR overexpression. Forty-eight hours after transfection, cells were harvested, pelleted by centrifugation at 1,000 rpm (Sorvall ST 16R centrifuge, Thermo Fisher), and washed once with cold PBS (0.01 M phosphate buffered saline NaCl 0.138 M; KCl 0.0027 M; pH 7.4). The cells were resuspended in PBS with protease inhibitors (cOmplete™ protease inhibitor cocktail, Roche product #11873580001) and cell lysates were prepared by sonication (Branson Sonifer 450, output=3, 20 episodes of stroke). The lysates were centrifuged (12,000×g for 10 min at 4° C.) to remove cell debris and the supernatants (containing ARM-SAM-TIR protein) were stored at −80° C. for later use in the in vitro ARM-SAM-TIR NADase assay (see below). Protein concentration was determined by the Bicinchoninic (BCA) method and used to normalize lysate concentrations.
ARM-SAM-TIR IC50 assay of Formula I compounds.
The enzymatic assay was performed in a 384-well polypropylene plate in Dulbecco's PBS buffer in a final assay volume of 20 μL. ARM-SAM-TIR lysate with a final concentration of 5 μg/mL was pre-incubated with the respective compound at 1% DMSO final assay concentration over 2h at room temperature. The reaction was initiated by addition of 5 uM final assay concentration of NAD+ as substrate. After a 2 hr room temperature incubation, the reaction was terminated with 40 μL of stop solution of 7.5% trichloroactetic acid in acetonitrile. The NAD+ and ADPR concentrations were analyzed by a RapidFire High Throughput Mass Spectrometry System (Agilent Technologies, Santa Clara, Calif.) using an API4000 triple quadrupole mass spectrometer (AB Sciex Framingham, Mass.).
For `O=C1[C@H](Cc2ccc(Cl)cc2)NCCN1c1cc(-c2ccncc2)n[nH]1` [Compound I-1-a], the IC50 was 101 to 500 nM. `O=C1[C@@H](Cc2ccc(Cl)cc2)NCCN1c1cc(-c2ccncc2)n[nH]1` [Compound I-1-b] gave an IC50 of over 1000 nM. In the case of `CN1CCN(c2cc(-c3ccncc3)n[nH]2)C(=O)[C@@H]1Cc1ccc(Cl)cc1` [Compound I-2-a], the IC50 is reported as over 1000 nM. `Cc1c(-c2ccncc2)n[nH]c1N1CCN[C@@H](Cc2ccc(Cl)cc2)C1=O` [Compound I-3-a] was tested, and the IC50 was over 1000 nM. Work on `O=C1C(Cc2ccc(Cl)cc2)CCN1c1nnc(-c2ccncc2)[nH]1` (stereo not shown) [Compound I-4] yielded an IC50 of under 50 nM. `O=C1C(Cc2ccc(Cl)cc2)CCCN1c1nnc(-c2ccncc2)[nH]1` (stereo not shown) [Compound I-5] was tested, and the IC50 was under 50 nM. In the case of `Cc1c(N2CCC(Cc3ccc(Cl)cc3)C2=O)n[nH]c1-c1ccncc1` (stereo not shown) [Compound I-6], the IC50 is reported as 51 to 100 nM. With `O=C1C(Cc2ccc(F)cc2)CCN1c1nnc(-c2ccncc2)[nH]1` (stereo not shown) [Compound I-7] the IC50 was 101 to 500 nM. With `O=C1C(Cc2ccc(Cl)c(F)c2)CCN1c1nnc(-c2ccncc2)[nH]1` (stereo not shown) [Compound I-8] the IC50 was under 50 nM. `O=C1C(Cc2ccc(Cl)nc2)CCN1c1nnc(-c2ccncc2)[nH]1` (stereo not shown) [Compound I-9] was tested, and the IC50 was 101 to 500 nM. In the case of `O=C1C(Cc2ccc(Cl)c(F)c2)CCCN1c1nnc(-c2ccncc2)[nH]1` (stereo not shown) [Compound I-10], the IC50 is reported as under 50 nM. Work on `O=C1C(Cc2ccc(F)c(F)c2)CCN1c1nnc(-c2ccncc2)[nH]1` (stereo not shown) [Compound I-11] yielded an IC50 of under 50 nM. `O=C1N(c2nnc(-c3ccncc3)[nH]2)CCC1(Cc1ccc(F)c(F)c1)Cc1ccc(F)c(F)c1` [Compound I-12] showed an IC50 of over 1000 nM. `O=C1C(Cc2ccc(F)c(F)c2)CCCN1c1nnc(-c2ccncc2)[nH]1` (stereo not shown) [Compound I-13] was tested, and the IC50 was under 50 nM. `O=C1C(Cc2ccc(Cl)c(F)c2)CCN1c1cc(-c2ccncc2)n[nH]1` (stereo not shown) [Compound I-14] was tested, and the IC50 was under 50 nM. For `O=C1C(Cc2ccc(Cl)cc2)CCN1c1cc(-c2ccncc2)n[nH]1` (stereo not shown) [Compound I-15], the IC50 was under 50 nM. `O=C1C(Cc2ccc(F)c(F)c2)CCN1c1cc(-c2ccncc2)n[nH]1` (stereo not shown) [Compound I-16] gave an IC50 of under 50 nM. Compound `O=C1C(Cc2ccc(Cl)nc2)CCN1c1cc(-c2ccncc2)n[nH]1` (stereo not shown) [Compound I-17] has an IC50 of under 50 nM. `O=C1C(Cc2cnc(Cl)c(F)c2)CCN1c1nnc(-c2ccncc2)[nH]1` (stereo not shown) [Compound I-18] gave an IC50 of 51 to 100 nM. Work on `O=C1C(Cc2ccc(Cl)cc2)CCCN1c1cc(-c2ccncc2)n[nH]1` (stereo not shown) [Compound I-19] yielded an IC50 of under 50 nM. Compound `O=C1C(Cc2ccc(Cl)c(F)c2)CCCN1c1cc(-c2ccncc2)n[nH]1` (stereo not shown) [Compound I-20] has an IC50 of under 50 nM. `O=C1C(Cc2ccc(Cl)nc2)CCCN1c1cc(-c2ccncc2)n[nH]1` (stereo not shown) [Compound I-21] was tested, and the IC50 was under 50 nM. `O=C1C(Cc2ccc(F)c(F)c2)CCCN1c1cc(-c2ccncc2)n[nH]1` (stereo not shown) [Compound I-22] gave an IC50 of under 50 nM. `O=C1C(Cc2ccc(F)nc2)CCCN1c1nnc(-c2ccncc2)[nH]1` (stereo not shown) [Compound I-23] showed an IC50 of under 50 nM. Compound `O=C1C(Cc2cnc(Cl)c(F)c2)CCCN1c1nnc(-c2ccncc2)[nH]1` (stereo not shown) [Compound I-24] has an IC50 of under 50 nM. With `N#Cc1ccc(CC2CCN(c3[nH]nc(-c4ccncc4)c3F)C2=O)cc1F` (stereo not shown) [Compound I-25] the IC50 was 101 to 500 nM. In the case of `N#Cc1ccc(CC2CCN(c3nnc(-c4ccncc4)[nH]3)C2=O)cc1F` (stereo not shown) [Compound I-26], the IC50 is reported as 101 to 500 nM. With `O=C1C(Cc2ccc(F)nc2)CCCN1c1[nH]nc(-c2ccncc2)c1F` (stereo not shown) [Compound I-27] the IC50 was 101 to 500 nM. In the case of `O=C1C(Cc2ccc(F)nc2)CCCN1c1[nH]nc(-c2ccncc2)c1Cl` (stereo not shown) [Compound I-28], the IC50 is reported as over 1000 nM. `O=C1C(Cc2ccc(Cl)nc2)CCCN1c1[nH]nc(-c2ccncc2)c1Cl` (stereo not shown) [Compound I-29] gave an IC50 of over 1000 nM. Work on `O=C1C(Cc2ccc(Cl)nc2)CNN1c1cc(-c2ccncc2)n[nH]1` (stereo not shown) [Compound I-30] yielded an IC50 of over 1000 nM. `O=C1C(Cc2ccc(Cl)nc2)CCCN1c1[nH]nc(-c2ccncc2)c1F` (stereo not shown) [Compound I-31] gave an IC50 of 101 to 500 nM. In the case of `O=C1C(Cc2ccc(F)nc2)CCN1c1[nH]nc(-c2ccncc2)c1Cl` (stereo not shown) [Compound I-32], the IC50 is reported as under 50 nM. In the case of `O=C1C(Cc2ccc(F)nc2)CCN1c1[nH]nc(-c2ccncc2)c1F` (stereo not shown) [Compound I-33], the IC50 is reported as under 50 nM. In the case of `O=C1C(Cc2ccc(Cl)nc2)CCN1c1[nH]nc(-c2ccncc2)c1Cl` (stereo not shown) [Compound I-34], the IC50 is reported as under 50 nM. For `O=C1C(Cc2ccc(Cl)nc2)NCN1c1cc(-c2ccncc2)n[nH]1` (stereo not shown) [Compound I-35], the IC50 was 501 to 1000 nM. `O=C1C(Cc2ccc(Cl)nc2)CCN1c1[nH]nc(-c2ccncc2)c1F` (stereo not shown) [Compound I-36] showed an IC50 of under 50 nM. `N#Cc1ccc(CC2CCN(c3cc(-c4ccncc4)n[nH]3)C2=O)cc1F` (stereo not shown) [Compound I-37] was tested, and the IC50 was 51 to 100 nM. For `O=C1C(Cc2ccc(Cl)cc2)CNCCN1c1nc(-c2ccncc2)n[nH]1` (stereo not shown) [Compound I-38], the IC50 was 501 to 1000 nM. `O=C1C(Cc2ccc(F)nc2)CCN1c1nnc(-c2ccncc2)[nH]1` (stereo not shown) [Compound I-39] was tested, and the IC50 was 101 to 500 nM. With `O=C1C(Cc2ccc(Cl)nc2)CCCCN1c1cc(-c2ccncc2)n[nH]1` (stereo not shown) [Compound I-40] the IC50 was 101 to 500 nM. With `Cc1c(-c2ccncc2)n[nH]c1N1CCC(Cc2cnc(Cl)c(F)c2)C1=O` (stereo not shown) [Compound I-41] the IC50 was 101 to 500 nM. With `O=C1N(c2nc(-c3ccncc3)n[nH]2)CCC1(F)Cc1ccc(Cl)nc1` (stereo not shown) [Compound I-42] the IC50 was over 1000 nM. `CC1(Cc2ccc(F)c(F)c2)CCN(c2nc(-c3ccncc3)n[nH]2)C1=O` (stereo not shown) [Compound I-43] gave an IC50 of over 1000 nM. `O=C1C(Cc2ccc(Cl)cc2)OCCN1c1nnc(-c2ccncc2)[nH]1` (stereo not shown) [Compound I-44] was tested, and the IC50 was under 50 nM. Work on `CC1(Cc2ccc(Cl)cc2)CCN(c2nc(-c3ccncc3)n[nH]2)C1=O` (stereo not shown) [Compound I-45] yielded an IC50 of 501 to 1000 nM. `O=C1C(Cc2ccc(Cl)cc2)OCCN1c1cc(-c2ccncc2)n[nH]1` (stereo not shown) [Compound I-47] gave an IC50 of 51 to 100 nM. With `Cc1c(-c2ccncc2)n[nH]c1N1CCC(Cc2ccc(Cl)nc2)C1=O` (stereo not shown) [Compound I-48] the IC50 was 101 to 500 nM. `Cc1c(-c2ccncc2)n[nH]c1N1CCC(Cc2ccc(F)c(F)c2)C1=O` (stereo not shown) [Compound I-49] was tested, and the IC50 was 51 to 100 nM. `Cc1c(-c2ccncc2)n[nH]c1N1CCCC(Cc2ccc(Cl)cc2)C1=O` (stereo not shown) [Compound I-50] was tested, and the IC50 was over 1000 nM. `N#Cc1c(-c2ccncc2)n[nH]c1N1CCC(Cc2ccc(Cl)nc2)C1=O` (stereo not shown) [Compound I-51] was tested, and the IC50 was 51 to 100 nM. Work on `N#Cc1c(-c2ccncc2)n[nH]c1N1CCC(Cc2ccc(Cl)cc2)C1=O` (stereo not shown) [Compound I-52] yielded an IC50 of under 50 nM. `N#Cc1c(-c2ccncc2)n[nH]c1N1CCC(Cc2ccc(F)c(F)c2)C1=O` (stereo not shown) [Compound I-53] was tested, and the IC50 was 51 to 100 nM. With `CC1(Cc2ccc(Cl)cc2)CCCN(c2nc(-c3ccncc3)n[nH]2)C1=O` (stereo not shown) [Compound I-54] the IC50 was 101 to 500 nM. `O=C1C(Cc2ccc(Cl)nc2)CCCN1c1nnc(-c2ccncc2)[nH]1` (stereo not shown) [Compound I-55] was tested, and the IC50 was 51 to 100 nM. `N#Cc1c(-c2ccncc2)n[nH]c1N1CCCC(Cc2ccc(Cl)cc2)C1=O` (stereo not shown) [Compound I-56] gave an IC50 of 101 to 500 nM. `O=C1C(Cc2ccc(Cl)nc2)OCCN1c1nnc(-c2ccncc2)[nH]1` (stereo not shown) [Compound I-58] gave an IC50 of 101 to 500 nM. With `O=C1C(Cc2ccc(Cl)cc2)NCN1c1cc(-c2ccncc2)n[nH]1` (stereo not shown) [Compound I-59] the IC50 was 101 to 500 nM. In the case of `N[C@H]1CC(Cc2ccc(Cl)nc2)C(=O)N(c2cc(-c3ccncc3)n[nH]2)C1` (stereo partly shown) [Compound I-60], the IC50 is reported as 501 to 1000 nM. Work on `CC1(Cc2ccc(Cl)nc2)CCCN(c2nnc(-c3ccncc3)[nH]2)C1=O` (stereo not shown) [Compound I-63] yielded an IC50 of 501 to 1000 nM. Work on `O=C1C(Cc2ccc(Cl)nc2)CNCN1c1cc(-c2ccncc2)n[nH]1` (stereo not shown) [Compound I-64] yielded an IC50 of over 1000 nM. `O=C1C(Cc2cnc(Cl)c(F)c2)CCN1c1cc(-c2ccncc2)n[nH]1` (stereo not shown) [Compound I-65] showed an IC50 of under 50 nM. `O=C1C(Cc2cnc(Cl)c(F)c2)CCCN1c1cc(-c2ccncc2)n[nH]1` (stereo not shown) [Compound I-66] gave an IC50 of under 50 nM. For `O=C1C(Cc2ccc(F)nc2)CCN1c1cc(-c2ccncc2)n[nH]1` (stereo not shown) [Compound I-67], the IC50 was under 50 nM. `N#Cc1c(-c2ccncc2)n[nH]c1N1CCCC(Cc2ccc(Cl)nc2)C1=O` (stereo not shown) [Compound I-68] was tested, and the IC50 was 101 to 500 nM. Work on `[2H]C1(Cc2ccc(F)nc2)C(=O)N(c2cc(-c3ccncc3)n[nH]2)C([2H])([2H])C([2H])([2H])C1([2H])[2H]` (stereo not shown) [Compound I-70] yielded an IC50 of 51 to 100 nM. For `[2H]C([2H])(c1ccc(Cl)nc1)C1([2H])C(=O)N(c2cc(-c3ccncc3)n[nH]2)C([2H])([2H])C([2H])([2H])C1([2H])[2H]` (stereo not shown) [Compound I-79], the IC50 was under 50 nM. With `N#Cc1ccc(CC2CCCN(c3cc(-c4ccncc4)n[nH]3)C2=O)cn1` (stereo not shown) [Compound I-94] the IC50 was 101 to 500 nM. `O=C1C(Cc2ccc(C(F)(F)F)nc2)CCCN1c1cc(-c2ccncc2)n[nH]1` (stereo not shown) [Compound I-96] was tested, and the IC50 was 101 to 500 nM. `O=C1C(Cc2ccc(C(F)(F)F)nc2)CCCN1c1nc(-c2ccncc2)n[nH]1` (stereo not shown) [Compound I-97] showed an IC50 of 101 to 500 nM. `N#Cc1ccc(CC2CCCN(c3cc(-c4ccncc4)n[nH]3)C2=O)cc1` (stereo not shown) [Compound I-98] gave an IC50 of under 50 nM. `N#Cc1ccc(CC2CCCN(c3nc(-c4ccncc4)n[nH]3)C2=O)cc1` (stereo not shown) [Compound I-99] gave an IC50 of 101 to 500 nM. `N#Cc1cc(CC2CCCN(c3cc(-c4ccncc4)n[nH]3)C2=O)ccc1F` (stereo not shown) [Compound I-100] showed an IC50 of under 50 nM.

Reference: patent US12043613B2, “Inhibitors of SARM1” (Disarm Therapeutics, Inc., priority 2020, dated 2024)
